In patent US9174994B2, “Enhanced treatment regimens using mTor inhibitors” (INTELLIKINE LLC, priority 2011, dated 2015):

Experiment: Phase I clinical trial: treatment-emergent adverse events (patients, n (%)), dose limiting toxicity, MTD
Format: in vivo
Procedure: Safety, maximum tolerated dose (MTD), pharmacokinetics (PK) and preliminary antitumor activity were evaluated.
Pharmacodynamic (PD) endpoints were evaluated in surrogate (peripheral blood cells [PBCs], skin) and tumor tissues for the phosphorylation of TORC1-dependent markers (4EBP1/S6), and TORC2-dependent markers (AKT/PRAS40).

For `CC(C)n1nc(-c2ccc3oc(N)nc3c2)c2c(N)ncnc21` [compound A], the Asthenia (15 mg/week (N = 3)) was 0 (0%), the Blood creatinine increased (15 mg/week (N = 3)) was 1 (33%) and the Blood triglycerides increased (15 mg/week (N = 3)) was 1 (33%). For the same compound, the DIARRHEA (15 mg/week (N = 3)) was 0 (0%), the Decreased appetite (15 mg/week (N = 3)) was 0 (0%) and the Diarrhoea (15 mg/week (N = 3)) was 0 (0%). The Dysgeusia (15 mg/week (N = 3)) was 0 (0%), the Dyspepsia (15 mg/week (N = 3)) was 0 (0%) and the HYPERGLYCEMIA (15 mg/week (N = 3)) was 0 (0%). For the same compound, the Hyperglycaemia (15 mg/week (N = 3)) was 2 (67%), the Lymphopenia (15 mg/week (N = 3)) was 0 (0%) and the Malaise (15 mg/week (N = 3)) was 0 (0%). For the same compound, the Mucosal inflammation (15 mg/week (N = 3)) was 0 (0%), the Muscle spasms (15 mg/week (N = 3)) was 0 (0%) and the Nausea (15 mg/week (N = 3)) was 2 (67%). The Oral discomfort (15 mg/week (N = 3)) was 0 (0%), the “Patients Reporting at Least One Related TEAE” value (“Patients Reporting” below) (15 mg/week (N = 3)) was 3 and the Pruritus (15 mg/week (N = 3)) was 0 (0%). For the same compound, the RASH (15 mg/week (N = 3)) was 0 (0%), the Rash (15 mg/week (N = 3)) was 0 (0%) and the Vomiting (15 mg/week (N = 3)) was 0 (0%). For the same compound, the WEAKNESS (15 mg/week (N = 3)) was 0 (0%), the Alanine aminotransferase increased (16 mg/3 W, QDx3d QW (N = 3)) was 0 (0%) and the Asthenia (16 mg/3 W, QDx3d QW (N = 3)) was 1 (33%). For the same compound, the Catheter site inflammation (16 mg/3 W, QDx3d QW (N = 3)) was 0 (0%), the Catheter site pain (16 mg/3 W, QDx3d QW (N = 3)) was 0 (0%) and the Decreased appetite (16 mg/3 W, QDx3d QW (N = 3)) was 0 (0%). For the same compound, the Diarrhoea (16 mg/3 W, QDx3d QW (N = 3)) was 1 (33%), the Dry skin (16 mg/3 W, QDx3d QW (N = 3)) was 0 (0%) and the Dysgeusia (16 mg/3 W, QDx3d QW (N = 3)) was 0 (0%). For the same compound, the Dyspnoea (16 mg/3 W, QDx3d QW (N = 3)) was 0 (0%), the Fatigue (16 mg/3 W, QDx3d QW (N = 3)) was 1 (33%) and the Headache (16 mg/3 W, QDx3d QW (N = 3)) was 1 (33%). The Hyperbilirubinaemia (16 mg/3 W, QDx3d QW (N = 3)) was 0 (0%), the Hypercholesterolaemia (16 mg/3 W, QDx3d QW (N = 3)) was 0 (0%) and the Hyperglycaemia (16 mg/3 W, QDx3d QW (N = 3)) was 2 (67%). The Hypertransaminasaemia (16 mg/3 W, QDx3d QW (N = 3)) was 0 (0%), the Hypertriglyceridaemia (16 mg/3 W, QDx3d QW (N = 3)) was 0 (0%) and the Hypomagnesaemia (16 mg/3 W, QDx3d QW (N = 3)) was 0 (0%). The Hypotension (16 mg/3 W, QDx3d QW (N = 3)) was 0 (0%), the Low fever (16 mg/3 W, QDx3d QW (N = 3)) was 1 (33%) and the Lymphopenia (16 mg/3 W, QDx3d QW (N = 3)) was 0 (0%). For the same compound, the Mucosal inflammation (16 mg/3 W, QDx3d QW (N = 3)) was 2 (67%), the Nausea (16 mg/3 W, QDx3d QW (N = 3)) was 0 (0%) and the Palmar-plantar erythrodysaesthesia syndrome (16 mg/3 W, QDx3d QW (N = 3)) was 0 (0%). For the same compound, the “Patients Reporting” value (16 mg/3 W, QDx3d QW (N = 3)) was 2 (67%), the Platelet count decreased (16 mg/3 W, QDx3d QW (N = 3)) was 0 (0%) and the Pruritus (16 mg/3 W, QDx3d QW (N = 3)) was 0 (0%). For the same compound, the Pyrexia (16 mg/3 W, QDx3d QW (N = 3)) was 1 (33%), the Rash (16 mg/3 W, QDx3d QW (N = 3)) was 0 (0%) and the Rash macular (16 mg/3 W, QDx3d QW (N = 3)) was 0 (0%). The Urinary tract infection (16 mg/3 W, QDx3d QW (N = 3)) was 0 (0%), the Vomiting (16 mg/3 W, QDx3d QW (N = 3)) was 0 (0%) and the Asthenia (16 mg/3 W, QDx3d QW (N = 3), 2nd Asthenia line) was 1 (33%). For the same compound, the Dose limiting toxicity (20 mg Q3D) was “Muco-”, the ASTHENIA (20 mg/week (N = 3)) was 0 (0%) and the ATHENIA (20 mg/week (N = 3)) was 0 (0%). For the same compound, the Alanine aminotransferase increased (20 mg/week (N = 3)) was 0 (0%), the Aspartate aminotransferase increased (20 mg/week (N = 3)) was 0 (0%) and the Asthenia (20 mg/week (N = 3)) was 2 (67%). For the same compound, the Blood creatinine increased (20 mg/week (N = 3)) was 0 (0%), the Blood triglycerides increased (20 mg/week (N = 3)) was 0 (0%) and the DIARRHEA (20 mg/week (N = 3)) was 0 (0%). For the same compound, the Decreased appetite (20 mg/week (N = 3)) was 1 (33%), the Diarrhoea (20 mg/week (N = 3)) was 2 (67%) and the Dysgeusia (20 mg/week (N = 3)) was 0 (0%). The Dyspepsia (20 mg/week (N = 3)) was 1 (33%), the HYPERGLYCEMIA (20 mg/week (N = 3)) was 0 (0%) and the Hyperglycaemia (20 mg/week (N = 3)) was 1 (33%). For the same compound, the Lymphopenia (20 mg/week (N = 3)) was 0 (0%), the Malaise (20 mg/week (N = 3)) was 0 (0%) and the Mucosal inflammation (20 mg/week (N = 3)) was 2 (67%). For the same compound, the Muscle spasms (20 mg/week (N = 3)) was 1 (33%), the Nausea (20 mg/week (N = 3)) was 2 (67%) and the Oral discomfort (20 mg/week (N = 3)) was 0 (0%). The “Patients Reporting” value (20 mg/week (N = 3)) was 2 (67%), the Pruritus (20 mg/week (N = 3)) was 1 (33%) and the RASH (20 mg/week (N = 3)) was 0 (0%). For the same compound, the Rash (20 mg/week (N = 3)) was 1 (33%), the Vomiting (20 mg/week (N = 3)) was 1 (33%) and the WEAKNESS (20 mg/week (N = 3)) was 0 (0%). For the same compound, the ASTHENIA (30 mg/week (N = 3)) was 1 (33%), the ATHENIA (30 mg/week (N = 3)) was 1 (33%) and the Alanine aminotransferase increased (30 mg/week (N = 3)) was 0 (0%). The Aspartate aminotransferase increased (30 mg/week (N = 3)) was 0 (0%), the Asthenia (30 mg/week (N = 3)) was 0 (0%) and the Blood creatinine increased (30 mg/week (N = 3)) was 0 (0%). The Blood triglycerides increased (30 mg/week (N = 3)) was 0 (0%), the DIARRHEA (30 mg/week (N = 3)) was 1 (33%) and the Decreased appetite (30 mg/week (N = 3)) was 0 (0%). The Diarrhoea (30 mg/week (N = 3)) was 0 (0%), the Dysgeusia (30 mg/week (N = 3)) was 0 (0%) and the Dyspepsia (30 mg/week (N = 3)) was 0 (0%). For the same compound, the HYPERGLYCEMIA (30 mg/week (N = 3)) was 2 (67%), the Hyperglycaemia (30 mg/week (N = 3)) was 0 (0%) and the Lymphopenia (30 mg/week (N = 3)) was 0 (0%). For the same compound, the Malaise (30 mg/week (N = 3)) was 1 (33%), the Mucosal inflammation (30 mg/week (N = 3)) was 1 (33%) and the Muscle spasms (30 mg/week (N = 3)) was 0 (0%). The Nausea (30 mg/week (N = 3)) was 3, the Oral discomfort (30 mg/week (N = 3)) was 0 (0%) and the “Patients Reporting” value (30 mg/week (N = 3)) was 3. The Pruritus (30 mg/week (N = 3)) was 0 (0%), the RASH (30 mg/week (N = 3)) was 1 (33%) and the Rash (30 mg/week (N = 3)) was 0 (0%). For the same compound, the Vomiting (30 mg/week (N = 3)) was 1 (33%), the WEAKNESS (30 mg/week (N = 3)) was 1 (33%) and the Dose limiting toxicity (40 mg QW) was “As-”.
